Measured values as given in US20090209613A1, “Use of allymercaptocaptopril for treating or preventing obesity and obesity related diseases” (Yeda Researc And Development Co. Ltd. at the Weizmann …, priority 2005, published 2009).

Key:
[1] = Body weight gain of SHROB rats fed drug-supplemented chow; assay type: in vivo, rat; conditions: for effect on body weight gain: compared with non-treated control, FIG. 1
Protocol: (§1) Animals: Obese spontaneously […] rats with a naturally occurring knockout of the leptin receptor (SHROB; Koletsky et al., pp. 143-158 in: Sima AAF and Shafrir (eds) Animal Models of Diabetes: A Primer, Harwood, Singapore, 2001) were used. Adult (4-5 months old) male and female SHROB were maintained essentially as described by Velliquette and Emsberger (JPET 307: 1104-1111, 2003). Briefly, animals were housed individually at a constant temperature of 21° C. on a 12:12 hours light/dark cycle. The animals were given ad libitum access to food (Teklad 8664 rat chow) and were maintained for a period of 60 days. The procedures were carried out in accordance with applicable laws and accepted guidelines for animal welfare.
(§2) Either CPSSA or captopril were dissolved in a 20% ethanol solution, chilled on ice, and were then thoroughly mixed with powdered rat chow in equivalent molar amounts of 1.107 and 0.827 gram/kg, respectively.
(§3) Eight SHROB rats (4 males, 4 females) were used in each treatment group. Animals were fed with chow supplemented with either CPSSA or captopril, or with standard (non-supplemented) chow diet, which served as a control. Measurements of body weight, food consumption and blood pressure were conducted 3 times a week for the duration of the experiment.

[2] = Systolic blood pressure of SHROB rats fed drug-supplemented chow; assay type: in vivo, rat
Protocol: Briefly, animals were housed individually at a constant temperature of 21° C. on a 12:12 hours light/dark cycle. […] The procedures were carried out in accordance with applicable laws and accepted guidelines for animal welfare.
as §3

[3] = Food consumption of SHROB rats fed drug-supplemented chow; assay type: in vivo, rat; conditions: throughout the experiment, FIG. 2
Protocol: as §1, §2, §3

[4] = cited from earlier work
[5] = in vivo; cited from earlier work
[6] = day 20, drug in chow ad libitum
[7] = day 53, drug in chow ad libitum

Compound | effect on body weight gain [1] | average body weight gain [1, 6] [%] | average body weight gain [1, 7] [%] | effect on blood pressure ([2]; FIG. 3) | average systolic blood pressure ([2]; day 14) | average systolic blood pressure ([2]; day 28) | average systolic blood pressure ([2]; day 56) | food uptake [3] | stability in blood or plasma ([4]; blood or plasma of mammals) | reaction with serum proteins ([4]; serum proteins) | blood pressure [5] | serum level of insulin [5] | serum level of triglycerides [5]
C=CCSSC[C@H](C)C(=O)N1CCC[C@H]1C(=O)O [CPSSA, Allylmercaptocaptopril] | effectively prevented body weight gain | 0.6 | −0.1 | substantially reduced the blood pressure | 165.6 | 146.8 | 140.3 | no differences were observed in the food uptake | stable in blood or plasma of mammals | reacts very sluggishly with serum proteins | significantly decreases blood pressure | reduces | reduces
C[C@H](CS)C(=O)N1CCC[C@H]1C(=O)O [captopril] | had no effect on body weight gain | 7.3 | 11.8 | – | 165.5 | 159.3 | 159.7 | no differences were observed in the food uptake | – | – | – | – | –
